Test system: hESC-VCMs
Test: Effect of isoproterenol on control and P5-aligned hESC-VCM preparations (optical mapping)
Type: cell-based, human
Conditions: for CV of control preparations: steady-state pacing at 1 Hz
Experimental: HESC-VCM preparations were loaded with 4 μM di-4-ANEPPS (Invitrogen, USA) for 20 min at room temperature in Tyrode's solution, consisting of (mM) 140 NaCl, 5 KCl, 1 MgCl2, 1 CaCl2, 10 glucose, and 10 HEPES at pH 7.4, then washed twice before fluorescence imaging using a halogen light filtered by a 515±35 nm band-pass excitation filter and a 590 nm high-pass emission filter. High-resolution optical mapping of AP and conduction properties was performed using a MiCam Ultima (SciMedia, Calif., USA) with a 1X objective and a 1X condensing lens to yield a 10×10 mm^2 field of view. A custom heat plate was introduced to maintain the perfused Tyrode's solution at 37° C. Data were collected at a sampling rate of 200 Hz and analyzed using BV_Ana software (SciMedia). Isoproterenol (Sigma-Aldrich, N.Y., USA) was applied by perfusion at the concentrations indicated.
Electrophysiological protocols were generated using a programmable stimulator (Master8, AMPI, Israel) with the stimuli delivered via a unipolar point-stimulation electrode (1.5× threshold, 10 ms duration) placed perpendicular to the preparation surface. […] The frequency was increased every minute in 0.1-Hz increments with a 5-sec pause.
Mapping was performed during the last 5-10 seconds of each frequency. […] Programmed electrical stimulation, Standard (S1-S2) programmed electrical stimulation (PES) protocol was introduced to study the electrical restitution curve (ERC) of hESC-VCMs. A premature extra-stimulus (S2) was delivered after a train of eight S1 stimuli at a basic cycle length (BCL) of 650 ms. S1-S2 interval was initiated at 600 ms and consecutively shortened in steps of 20 ms until capture has failed. […] There was a pause of 10 s after each S2. The entire stimulation protocol was performed within 30 minutes after di-4-ANEPPS staining.

[1] = P5-aligned preparations, 0.5 μM, n=3

CC(C)NCC(O)c1ccc(O)c(O)c1 (stereo not shown) [isoproterenol]
CV of control preparations (0.1 μM isoproterenol, n=3): 6.3 ± 1.4 cm/s
CV of control preparations (0.5 μM isoproterenol, n=3): 7.6 ± 1.1 cm/s
CV of control preparations (1.0 μM isoproterenol, n=3): 8.1 ± 0.6 cm/s
depolarization (upstroke) velocity (FIG. 6, hESC-VCMs): increasing
AP duration (FIG. 6F, hESC-VCMs): reduces
sustained functional reentrant arrhythmias (P5-aligned preparations, 0.5 μM, n=2): no sustained functional reentrant arrhythmias could be observed
L-CV after isoproterenol [1]: 7.76 cm/s
T-CV after isoproterenol [1]: 4.91 cm/s
AR after isoproterenol application (P5-aligned preparations, n=2): 1.76
control preparations with spontaneous spiral waves (sustained functional reentrant arrhythmias) (control substrates, 2 of 3 preparations, 0.5 μM per FIG. 6C): 66%

— patent US10160954B2, “Engineered physical alignment of stem cell-derived cardiomyocytes” (The Regents of the University of California, priority 2013, dated 2018)
